Like-named read-outs stand apart in the source and are kept apart here.
What was measured:
PKMYT1 = target: T1, PKMYT1 (Homo sapiens, UniProt Q99640); test: ADP-Glo PKMYT1 ATP-depletion assay; details: 50 nM PKMYT1, 13.3 nM CDK1, read-out: Biochemical IC50
T1 construct: PKMYT1 (93 kD, full length, N-terminal GST tag from Signal Chem); GST (N); purchased Signal Chem
T1 sequence (Q99640 1-499): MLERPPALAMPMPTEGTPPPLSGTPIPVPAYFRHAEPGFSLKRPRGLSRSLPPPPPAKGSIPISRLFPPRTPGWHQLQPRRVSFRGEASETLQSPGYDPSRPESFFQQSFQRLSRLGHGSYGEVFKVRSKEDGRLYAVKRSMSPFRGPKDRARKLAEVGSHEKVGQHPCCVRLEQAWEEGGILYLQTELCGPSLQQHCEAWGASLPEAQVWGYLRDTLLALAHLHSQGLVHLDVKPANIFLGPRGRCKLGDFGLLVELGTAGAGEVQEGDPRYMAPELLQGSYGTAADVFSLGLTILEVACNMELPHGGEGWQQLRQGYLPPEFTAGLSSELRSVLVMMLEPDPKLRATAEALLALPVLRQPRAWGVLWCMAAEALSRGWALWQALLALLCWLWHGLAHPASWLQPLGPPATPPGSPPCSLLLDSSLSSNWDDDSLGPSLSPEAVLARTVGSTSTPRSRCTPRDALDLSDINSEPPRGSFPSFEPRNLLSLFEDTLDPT
Procedure, shortened: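 Full-length N-terminal GST-tagged PKMYT1 (50 nM) with GST-CDK1 (13.3 nM) as substrate and 88 µM ATP, in Hepes buffer with MgCl2, MnCl2, DTT and BSA; DMSO <1%. Incubated 120 min at RT. ADP formed was quantified by ADP-Glo luminescence and used to derive biochemical IC50.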

[1] = system: phosphorylation of CDK1 at Thr14 in HCC1806 cells; test: Cell lysate AlphaLISA assay measuring inhibition of phosphorylation of CDK1 Thr14; assay type: cell-based; details: read-out: Cellular IC50
Procedure, shortened: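 HCC1806 cells seeded overnight, then treated 4 h at 37 °C, 5% CO2 with compounds in DMSO; washed and lysed, lysates frozen overnight at −80 °C. CDK1 Thr14 phosphorylation read by AlphaLISA SureFire Ultra; data normalized to DMSO (0% inhibition) and 3 μM reference compound to give IC50.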

SMILES	IC50 (PKMYT1)	IC50 ([1]; Homo sapiens, HCC1806, 4 h)	IC50 ([1]; 4 hours)
NC(=O)c1cc2nccnc2c(-c2ccc(F)c(O)c2)c1N [Compound 200]	0.05 to 0.5 µM	≥ 5 µM	
Cc1c(O)cccc1-c1c(N)c(C(N)=O)cc2ncc(=O)n(C)c12 [Compound 202]	1 to 5 µM	≥ 5 µM	
NC(=O)c1nc2cccnc2c(-c2cc(F)cc3[nH]ncc23)c1N [Compound 203]	0.05 to 0.5 µM	1 to 5 µM	
NC(=O)c1nc2cccnc2c(-c2ccc3c[nH]nc3c2)c1N [Compound 204]	1 to 5 µM	≥ 5 µM	
Cc1cc2c[nH]nc2cc1-c1c(N)c(C(N)=O)nc2cccnc12 [Compound 205]	≥ 5 µM	≥ 5 µM	
NC(=O)c1nc2cccnc2c(-c2cccc3[nH]ncc23)c1N [Compound 206]	0.05 to 0.5 µM	1 to 5 µM	
Cc1ncccc1-c1c(N)c(C(N)=O)nc2cccnc12 [Compound 207]	≥ 5 µM	≥ 5 µM	
Cc1c(F)cncc1-c1c(N)c(C(N)=O)nc2cccnc12 [Compound 208]	0.05 to 0.5 µM	0.5 to 1 µM	
Cc1cnn(C)c1-c1c(N)c(C(N)=O)nc2cccnc12 [Compound 210]	≥ 5 µM	≥ 5 µM	
Cc1cncc(C2=c3ncccc3=NC(C(N)=O)C2N)c1C (stereo not drawn) [Compound 211]	0.5 to 1 µM	1 to 5 µM	
Cc1cncc(C2=c3ncccc3=NC(C(N)=O)C2N)c1C (stereo not drawn) [Compound 212]	0.05 to 0.5 µM		0.5 to 1 µM
NC(=O)c1cc2nccnc2c(-c2cccc3sncc23)c1N [Compound 214]	0.5 to 1 µM	≥ 5 µM	
NC(=O)c1cc2nccnc2c(-c2cc(O)ccc2C(F)(F)F)c1N [Compound 215]	≥ 5 µM	≥ 5 µM	
NC(=O)c1cc2nccnc2c(-c2cccn3cncc23)c1N [Compound 216]	1 to 5 µM	≥ 5 µM	
Cc1cnc2c(-c3c(C)ccc(O)c3C)c(N)c(C(N)=O)cc2n1 [Compound 217]	< 0.05 µM		0.05 to 0.5 µM
Cc1c(O)cccc1-c1c(N)c(C(N)=O)cc2c1ncc(=O)n2C [Compound 219]	1 to 5 µM	≥ 5 µM	
NC(=O)c1nc2cccnc2c(-c2c(F)ccc3[nH]ncc23)c1N [Compound 220]	0.05 to 0.5 µM		1 to 5 µM
Cc1cc(CO)ccc1-c1c(N)c(C(N)=O)nc2cccnc12 [Compound 221]	≥ 5 µM	≥ 5 µM	
Cc1c(F)cncc1C1=c2ncccc2=NC(C(N)=O)C1N (stereo not drawn) [Compound 225]	≥ 5 µM		≥ 5 µM
Cc1c(F)cncc1C1=c2ncccc2=NC(C(N)=O)C1N (stereo not drawn) [Compound 226]	< 0.05 µM		0.5 to 1 µM
Cc1c(-c2c(N)c(C(N)=O)cc3nccnc23)ccc(F)c1O [Compound 227]	< 0.05 µM	0.05 to 0.5 µM	
Cc1nc(F)ccc1-c1c(N)c(C(N)=O)nc2cccnc12 [Compound 228]	≥ 5 µM	≥ 5 µM	

SMILES	IC50 (PKMYT1)	IC50 ([1]; Homo sapiens, HCC1806, 4 h)	IC50 ([1]; 4 hours)
COc1cnc(F)c(-c2c(N)c(C(N)=O)nc3cccnc23)c1 [Compound 229]	1 to 5 µM	≥ 5 µM	
NC(=O)c1nc2cccnc2c(-c2cncc3sccc23)c1N [Compound 230]	0.05 to 0.5 µM	1 to 5 µM	
COc1ncncc1-c1c(N)c(C(N)=O)nc2cccnc12 [Compound 231]	0.5 to 1 µM	≥ 5 µM	
Cc1ncncc1-c1c(N)c(C(N)=O)nc2cccnc12 [Compound 232]	1 to 5 µM	≥ 5 µM	
Cc1c(O)cccc1-c1ccnc2nc(C(N)=O)c(N)cc12 [Compound 233]	1 to 5 µM	≥ 5 µM	
Cc1cnc2[nH]ncc2c1-c1c(N)c(C(N)=O)cc2nccnc12 [Compound 234]	≥ 5 µM	≥ 5 µM	
N#Cc1cccc2nc(C(N)=O)c(N)c(-c3cncnc3)c12 [Compound 236]	1 to 5 µM	≥ 5 µM	
Cc1c(O)cccc1-c1c(N)c(C(N)=O)nc2ncccc12 [Compound 237]	0.05 to 0.5 µM	1 to 5 µM	
COc1cc(-c2c(N)c(C(N)=O)nc3cccnc23)cnc1C [Compound 238]	1 to 5 µM	≥ 5 µM	
Cc1c(Cl)cncc1C1=c2ncccc2=NC(C(N)=O)C1N (stereo not drawn) [Compound 239]	≥ 5 µM		≥ 5 µM
Cc1c(Cl)cncc1C1=c2ncccc2=NC(C(N)=O)C1N (stereo not drawn) [Compound 240]	< 0.05 µM		0.05 to 0.5 µM
Cc1c(O)cccc1-c1c(N)c(C(N)=O)cc2nccc(C#N)c12 [Compound 241]	< 0.05 µM	< 0.05 µM	
Cc1c(O)cc(Cl)cc1-c1c(N)c(C(N)=O)nc2cccnc12 [Compound 248]	0.05 to 0.5 µM		1 to 5 µM
Cc1c(CO)cccc1-c1c(N)c(C(N)=O)nc2cccnc12 [Compound 249]	≥ 5 µM	≥ 5 µM	
NC(=O)c1nc2cccnc2c(-c2cccc3occc23)c1N [Compound 250]	≥ 5 µM	≥ 5 µM	
Cc1ccc(O)c(C)c1-c1c(N)c(C(N)=O)cc2nc(-c3cnn(C)c3)cnc12 [Compound 251]	< 0.05 µM	0.5 to 1 µM	
Cc1c(-c2c(N)c(C(N)=O)cc3nccnc23)ccc2[nH]cnc12 [Compound 252]	≥ 5 µM	≥ 5 µM	
NC(=O)c1nc2cccnc2c(-c2cncnc2C(F)(F)F)c1N [Compound 253]	1 to 5 µM	≥ 5 µM	
Cc1ccc(C#N)cc1-c1c(N)c(C(N)=O)nc2cccnc12 [Compound 254]	≥ 5 µM	≥ 5 µM	
Cc1ncc(O)c(C)c1-c1c(N)c(C(N)=O)nc2cccnc12 [Compound 256]	1 to 5 µM	≥ 5 µM	
Cc1cnncc1-c1c(N)c(C(N)=O)nc2cccnc12 [Compound 257]	≥ 5 µM	≥ 5 µM	
NC(=O)c1nc2cccnc2c(-c2cncc(Cl)c2Cl)c1N [Compound 258]	< 0.05 µM	0.05 to 0.5 µM	

SMILES	IC50 (PKMYT1)	IC50 ([1]; Homo sapiens, HCC1806, 4 h)	IC50 ([1]; 4 hours)
NC(=O)c1nc2cccnc2c(-c2cnccc2C(F)(F)F)c1N [Compound 259]	0.5 to 1 µM	≥ 5 µM	
Cc1c(O)cccc1-c1c(N)c(C(N)=O)nc2nccc(C#N)c12 [Compound 260]	≥ 5 µM	≥ 5 µM	
Cc1c(O)cccc1-c1c(N)c(C(N)=O)nc2nccc(Cl)c12 [Compound 261]	≥ 5 µM	≥ 5 µM	
Cc1c(O)cccc1-c1c(N)c(C(N)=O)nc2c(=O)[nH]cnc12 [Compound 282]	0.05 to 0.5 µM	≥ 5 µM	
Cc1cc(O)c(C)c(-c2c(N)c(C(N)=O)nc3cccnc23)c1 [Compound 291]	1 to 5 µM		≥ 5 µM
Cc1ccc(-c2c(N)c(C(N)=O)nc3cccnc23)c(C)c1O [Compound 292]	0.05 to 0.5 µM		0.5 to 1 µM
NC(=O)c1nc2cccnc2c(-c2cccc3c2CC(=O)N3)c1N [Compound 293]	≥ 5 µM	≥ 5 µM	
Cc1c(O)cccc1-c1c(N)c(C(N)=O)nc2nccc(O)c12 [Compound 297]	≥ 5 µM	≥ 5 µM	
Cc1ccc(O)c(C)c1-c1c(N)c(C#N)cc2nccnc12 [Compound 298]	1 to 5 µM	≥ 5 µM	
CC1=C(c2c(N)c(C(N)=O)nc3cccnc23)CCCC1=O [Compound 303]	≥ 5 µM	≥ 5 µM	
NC(=O)c1nc2cccnc2c(-c2cccc3[nH]nc(F)c23)c1N [Compound 306]	0.05 to 0.5 µM		≥ 5 µM
Cc1cccc(C)c1-c1c(N)c(C(N)=O)cc2nccnc12 [Compound 308]	≥ 5 µM	≥ 5 µM	
CC1=C(c2c(N)c(C(N)=O)nc3cccnc23)CCC[C@H]1O [Compound 309]	≥ 5 µM	≥ 5 µM	
CC1=C(c2c(N)c(C(N)=O)nc3cccnc23)CCC[C@@H]1O [Compound 310]	≥ 5 µM	≥ 5 µM	
Cc1cc2nc(N)sc2cc1-c1c(N)c(C(N)=O)cc2nccnc12 [Compound 311]	1 to 5 µM	≥ 5 µM	
COc1ccc2nc(C(N)=O)c(N)c(-c3cncc(C(F)F)c3C)c2n1 [Compound 314]	0.5 to 1 µM	≥ 5 µM	
COc1ccc2nc(C(N)=O)c(N)c(-c3cc(O)ncc3C)c2n1 [Compound 315]	≥ 5 µM	≥ 5 µM	
NC(=O)c1cc2nccnc2c(-c2cccc3cncn23)c1N [Compound 316]	0.5 to 1 µM	≥ 5 µM	
Cc1c(C#N)cncc1-c1c(N)c(C(N)=O)nc2cccnc12 [Compound 317]	1 to 5 µM	≥ 5 µM	
COc1ccnc2c(-c3cccc(O)c3C)c(N)c(C(N)=O)cc12 [Compound 318]	< 0.05 µM		0.05 to 0.5 µM
Cc1c(O)cccc1-c1c(N)c(C(N)=O)nc2cccc(S(C)(=O)=O)c12 [Compound 319]	0.05 to 0.5 µM	0.5 to 1 µM	
Cc1c(-c2c(N)c(C(N)=O)nc3cccnc23)cnn1C [Compound 320]	≥ 5 µM	1 to 5 µM	

From US20260176270A1 (Exelixis, Inc., priority 2022, published 2026)
